{"source": "paper PMC3445516", "about": "(PLoS ONE, 2012)", "assay_in_all_cases": "Ambit kinase profiling, competition binding", "key": {"[1]": {"molecular_target": "T1, ERK4 (Homo sapiens, UniProt P31152)", "T1 construct": "purchased Ambit Biosciences (KINOMEscan)", "T1 sequence (P31152 whole entry, canonical isoform)": "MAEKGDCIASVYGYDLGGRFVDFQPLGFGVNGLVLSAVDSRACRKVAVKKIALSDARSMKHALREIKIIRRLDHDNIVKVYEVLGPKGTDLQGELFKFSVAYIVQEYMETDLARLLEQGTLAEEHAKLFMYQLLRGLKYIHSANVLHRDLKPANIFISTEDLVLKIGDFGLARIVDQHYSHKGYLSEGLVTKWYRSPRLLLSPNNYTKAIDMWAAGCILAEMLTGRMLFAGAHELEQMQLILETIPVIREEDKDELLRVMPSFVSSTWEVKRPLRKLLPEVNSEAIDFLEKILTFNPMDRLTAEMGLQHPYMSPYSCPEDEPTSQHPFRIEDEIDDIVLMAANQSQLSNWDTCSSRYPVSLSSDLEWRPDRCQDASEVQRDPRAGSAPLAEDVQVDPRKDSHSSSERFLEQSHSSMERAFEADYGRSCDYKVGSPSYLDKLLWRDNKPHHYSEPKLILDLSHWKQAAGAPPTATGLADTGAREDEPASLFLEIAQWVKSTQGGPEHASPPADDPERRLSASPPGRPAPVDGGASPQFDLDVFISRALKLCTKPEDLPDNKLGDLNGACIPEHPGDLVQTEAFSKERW", "experimental": "(§1) Also included in the kinase profile are four isoforms of PKC (δ, ε, η, θ) and eight isoforms of CAMKs (CAMKIα, δ, γ; CAMKIIα, β, δ, γ; CAMK4).\n(§2) The global kinase profiling experiment was performed by Ambit Biosciences."}, "[2]": {"molecular_target": "T2, BTK (Homo sapiens, UniProt Q06187)", "T2 construct": "purchased Ambit Biosciences (KINOMEscan)", "T2 sequence (Q06187 whole entry)": "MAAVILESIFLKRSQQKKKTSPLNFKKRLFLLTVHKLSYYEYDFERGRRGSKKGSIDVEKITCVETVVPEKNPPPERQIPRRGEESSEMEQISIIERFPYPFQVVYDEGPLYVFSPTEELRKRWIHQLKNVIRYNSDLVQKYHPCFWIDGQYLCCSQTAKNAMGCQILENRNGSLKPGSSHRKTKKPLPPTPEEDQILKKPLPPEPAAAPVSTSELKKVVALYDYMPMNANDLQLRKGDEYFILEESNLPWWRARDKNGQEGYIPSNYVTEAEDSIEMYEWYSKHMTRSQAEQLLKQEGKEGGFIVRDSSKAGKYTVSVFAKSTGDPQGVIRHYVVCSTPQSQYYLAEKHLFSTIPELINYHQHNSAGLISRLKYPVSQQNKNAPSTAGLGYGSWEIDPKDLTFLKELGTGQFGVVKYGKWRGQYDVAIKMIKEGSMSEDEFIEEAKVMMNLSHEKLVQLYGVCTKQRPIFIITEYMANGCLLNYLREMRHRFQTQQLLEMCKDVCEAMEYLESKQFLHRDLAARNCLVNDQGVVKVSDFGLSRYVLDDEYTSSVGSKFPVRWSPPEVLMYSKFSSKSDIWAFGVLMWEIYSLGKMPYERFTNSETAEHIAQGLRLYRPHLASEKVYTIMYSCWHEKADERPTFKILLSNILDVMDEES", "conditions": "for % Competition: 10 µM", "experimental": "as §1, §2"}, "[3]": {"molecular_target": "T3, AURKC (Homo sapiens, UniProt Q9UQB9)", "T3 construct": "purchased Ambit Biosciences (KINOMEscan)", "T3 sequence (Q9UQB9 1-309)": "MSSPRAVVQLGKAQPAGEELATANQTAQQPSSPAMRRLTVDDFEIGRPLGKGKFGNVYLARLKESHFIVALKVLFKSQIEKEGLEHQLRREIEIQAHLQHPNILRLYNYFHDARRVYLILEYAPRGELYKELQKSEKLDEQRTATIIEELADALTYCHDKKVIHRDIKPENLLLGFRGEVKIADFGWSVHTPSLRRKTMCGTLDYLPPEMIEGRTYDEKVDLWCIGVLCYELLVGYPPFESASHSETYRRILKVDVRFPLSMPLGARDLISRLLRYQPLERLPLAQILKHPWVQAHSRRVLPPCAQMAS", "experimental": "as §1, §2"}, "[4]": {"molecular_target": "T4, LATS2 (Homo sapiens, UniProt Q9NRM7)", "T4 construct": "purchased Ambit Biosciences (KINOMEscan)", "T4 sequence (Q9NRM7 1-1088)": "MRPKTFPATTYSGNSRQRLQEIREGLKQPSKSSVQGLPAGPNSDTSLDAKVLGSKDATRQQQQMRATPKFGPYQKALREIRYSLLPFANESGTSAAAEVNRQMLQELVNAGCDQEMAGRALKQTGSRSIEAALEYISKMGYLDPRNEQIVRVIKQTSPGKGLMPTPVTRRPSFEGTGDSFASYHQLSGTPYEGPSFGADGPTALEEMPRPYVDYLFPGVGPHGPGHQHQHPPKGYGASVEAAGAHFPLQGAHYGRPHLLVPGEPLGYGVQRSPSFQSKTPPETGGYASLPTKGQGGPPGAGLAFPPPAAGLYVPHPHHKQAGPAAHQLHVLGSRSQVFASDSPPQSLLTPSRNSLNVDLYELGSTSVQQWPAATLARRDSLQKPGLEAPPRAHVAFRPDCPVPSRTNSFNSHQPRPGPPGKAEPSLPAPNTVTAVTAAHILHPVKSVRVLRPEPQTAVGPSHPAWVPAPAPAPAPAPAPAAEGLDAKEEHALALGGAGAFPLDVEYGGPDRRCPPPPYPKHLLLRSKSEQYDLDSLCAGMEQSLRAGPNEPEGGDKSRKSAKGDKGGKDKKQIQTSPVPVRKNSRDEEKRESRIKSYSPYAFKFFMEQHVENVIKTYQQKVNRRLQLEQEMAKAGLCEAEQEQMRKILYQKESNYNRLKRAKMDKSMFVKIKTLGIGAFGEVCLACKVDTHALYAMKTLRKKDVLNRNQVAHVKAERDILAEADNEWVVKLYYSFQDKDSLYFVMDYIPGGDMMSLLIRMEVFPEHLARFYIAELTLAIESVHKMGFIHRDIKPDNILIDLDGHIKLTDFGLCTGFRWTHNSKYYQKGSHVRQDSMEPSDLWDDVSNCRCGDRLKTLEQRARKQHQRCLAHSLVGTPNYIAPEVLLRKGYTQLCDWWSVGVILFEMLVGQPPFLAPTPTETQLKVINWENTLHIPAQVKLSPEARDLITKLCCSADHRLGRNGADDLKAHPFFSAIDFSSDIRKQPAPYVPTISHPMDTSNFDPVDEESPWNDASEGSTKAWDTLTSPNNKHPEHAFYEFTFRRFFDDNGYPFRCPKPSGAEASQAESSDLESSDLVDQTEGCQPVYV", "conditions": "for % Competition: 10 µM", "experimental": "as §1, §2"}, "[5]": {"molecular_target": "T5, ERK2 (Homo sapiens, UniProt P28482)", "T5 construct": "purchased Ambit Biosciences (KINOMEscan)", "T5 sequence (P28482 whole entry)": "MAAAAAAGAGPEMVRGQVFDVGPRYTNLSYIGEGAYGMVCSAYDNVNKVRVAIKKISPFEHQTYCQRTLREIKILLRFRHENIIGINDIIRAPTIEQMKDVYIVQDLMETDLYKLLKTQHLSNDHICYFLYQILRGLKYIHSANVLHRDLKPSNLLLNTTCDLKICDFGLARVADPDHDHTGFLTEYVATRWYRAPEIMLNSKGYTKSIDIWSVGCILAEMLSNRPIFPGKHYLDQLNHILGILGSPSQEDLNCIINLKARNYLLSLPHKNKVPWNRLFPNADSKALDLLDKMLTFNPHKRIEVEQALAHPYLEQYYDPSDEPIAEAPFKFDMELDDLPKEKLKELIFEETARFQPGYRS", "experimental": "as §1, §2"}, "[6]": {"molecular_target": "T6, TGFBR1 (Homo sapiens, UniProt P36897)", "T6 construct": "purchased Ambit Biosciences (KINOMEscan)", "T6 sequence (P36897 34-503)": "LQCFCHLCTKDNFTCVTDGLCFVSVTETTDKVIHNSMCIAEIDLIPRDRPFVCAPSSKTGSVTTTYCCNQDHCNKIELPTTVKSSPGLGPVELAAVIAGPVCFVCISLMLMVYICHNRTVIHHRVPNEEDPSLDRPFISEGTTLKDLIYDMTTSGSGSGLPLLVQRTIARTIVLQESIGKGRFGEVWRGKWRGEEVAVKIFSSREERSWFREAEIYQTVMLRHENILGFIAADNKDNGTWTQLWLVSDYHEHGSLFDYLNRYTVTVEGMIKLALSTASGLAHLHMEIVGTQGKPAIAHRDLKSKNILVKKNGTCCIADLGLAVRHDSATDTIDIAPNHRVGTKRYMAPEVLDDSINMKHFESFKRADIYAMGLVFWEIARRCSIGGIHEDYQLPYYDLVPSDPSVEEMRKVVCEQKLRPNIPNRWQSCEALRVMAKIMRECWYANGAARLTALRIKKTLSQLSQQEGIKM", "experimental": "as §1, §2"}, "[7]": {"molecular_target": "T7, GSK3B (Homo sapiens, UniProt P49841)", "T7 construct": "purchased Ambit Biosciences (KINOMEscan)", "T7 sequence (P49841 whole entry)": "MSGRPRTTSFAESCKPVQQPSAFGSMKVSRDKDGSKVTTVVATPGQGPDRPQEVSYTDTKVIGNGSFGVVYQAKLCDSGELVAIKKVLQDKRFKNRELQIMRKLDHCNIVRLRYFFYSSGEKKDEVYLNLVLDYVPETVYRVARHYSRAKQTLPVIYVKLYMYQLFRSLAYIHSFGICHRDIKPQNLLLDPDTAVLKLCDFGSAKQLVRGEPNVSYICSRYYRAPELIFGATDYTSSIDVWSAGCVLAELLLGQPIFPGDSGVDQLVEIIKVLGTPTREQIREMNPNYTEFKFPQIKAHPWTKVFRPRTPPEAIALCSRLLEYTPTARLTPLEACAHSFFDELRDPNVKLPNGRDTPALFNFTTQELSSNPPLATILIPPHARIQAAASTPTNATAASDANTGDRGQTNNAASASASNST", "experimental": "as §1, §2"}, "[8]": {"molecular_target": "T8, CAMKIα (Homo sapiens, UniProt Q14012)", "T8 construct": "purchased Ambit Biosciences (KINOMEscan)", "T8 sequence (Q14012 whole entry)": "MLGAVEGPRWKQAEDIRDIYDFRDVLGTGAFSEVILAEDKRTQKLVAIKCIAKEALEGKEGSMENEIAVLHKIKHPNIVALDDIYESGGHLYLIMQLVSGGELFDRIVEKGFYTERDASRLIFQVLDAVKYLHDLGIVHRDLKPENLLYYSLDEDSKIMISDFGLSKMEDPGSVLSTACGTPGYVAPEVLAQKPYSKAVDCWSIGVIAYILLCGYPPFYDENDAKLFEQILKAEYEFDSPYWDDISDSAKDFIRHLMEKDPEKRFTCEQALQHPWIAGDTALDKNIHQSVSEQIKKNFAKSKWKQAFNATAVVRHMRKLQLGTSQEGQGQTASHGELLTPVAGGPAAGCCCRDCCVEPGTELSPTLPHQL", "conditions": "for competition: CAMKIα, 10 µM", "experimental": "as §1, §2"}, "[9]": {"molecular_target": "T9, MEK3 (Homo sapiens, UniProt P46734)", "T9 construct": "purchased Ambit Biosciences (KINOMEscan)", "T9 sequence (P46734 1-347)": "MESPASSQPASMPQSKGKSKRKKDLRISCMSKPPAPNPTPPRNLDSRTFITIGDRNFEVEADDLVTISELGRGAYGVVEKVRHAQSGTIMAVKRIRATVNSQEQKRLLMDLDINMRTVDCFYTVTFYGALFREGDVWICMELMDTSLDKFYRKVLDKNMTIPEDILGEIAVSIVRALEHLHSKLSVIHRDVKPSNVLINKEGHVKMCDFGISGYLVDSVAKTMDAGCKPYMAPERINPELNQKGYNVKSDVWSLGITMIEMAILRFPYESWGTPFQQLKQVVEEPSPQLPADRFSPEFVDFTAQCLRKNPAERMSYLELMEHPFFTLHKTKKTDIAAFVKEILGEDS", "experimental": "as §1, §2"}, "[10]": {"molecular_target": "T10, ACVR2B (Homo sapiens, UniProt Q13705)", "T10 construct": "purchased Ambit Biosciences (KINOMEscan)", "T10 sequence (Q13705 19-512)": "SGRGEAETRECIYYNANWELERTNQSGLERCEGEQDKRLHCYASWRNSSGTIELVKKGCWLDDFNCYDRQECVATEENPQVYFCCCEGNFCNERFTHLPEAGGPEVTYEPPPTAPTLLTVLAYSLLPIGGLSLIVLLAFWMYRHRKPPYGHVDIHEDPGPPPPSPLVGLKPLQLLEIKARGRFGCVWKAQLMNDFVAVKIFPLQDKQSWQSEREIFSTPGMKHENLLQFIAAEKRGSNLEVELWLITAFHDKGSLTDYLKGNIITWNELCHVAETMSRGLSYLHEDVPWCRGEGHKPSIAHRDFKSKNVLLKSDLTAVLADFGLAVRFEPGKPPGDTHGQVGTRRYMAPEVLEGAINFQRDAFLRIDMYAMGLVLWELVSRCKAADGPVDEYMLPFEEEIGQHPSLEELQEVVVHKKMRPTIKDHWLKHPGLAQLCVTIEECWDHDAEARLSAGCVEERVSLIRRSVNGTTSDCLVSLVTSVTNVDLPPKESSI", "conditions": "for % Competition: 10 µM", "experimental": "as §1, §2"}, "[11]": {"molecular_target": "T11, BMPR1B (Homo sapiens, UniProt O00238)", "T11 construct": "purchased Ambit Biosciences (KINOMEscan)", "T11 sequence (O00238 14-502)": "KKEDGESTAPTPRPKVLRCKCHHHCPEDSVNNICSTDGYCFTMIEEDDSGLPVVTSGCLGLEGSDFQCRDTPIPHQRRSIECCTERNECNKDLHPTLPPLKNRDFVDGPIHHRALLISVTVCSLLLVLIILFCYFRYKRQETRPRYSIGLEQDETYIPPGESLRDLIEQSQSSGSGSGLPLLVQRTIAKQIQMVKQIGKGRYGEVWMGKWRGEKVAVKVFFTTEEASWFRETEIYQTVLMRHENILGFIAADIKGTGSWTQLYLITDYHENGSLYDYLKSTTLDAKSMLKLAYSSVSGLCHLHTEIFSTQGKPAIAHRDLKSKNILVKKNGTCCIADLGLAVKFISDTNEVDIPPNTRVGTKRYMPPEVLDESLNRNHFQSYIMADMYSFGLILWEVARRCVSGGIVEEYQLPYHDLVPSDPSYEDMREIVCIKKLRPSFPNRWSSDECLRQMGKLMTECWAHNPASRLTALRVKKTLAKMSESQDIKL", "experimental": "as §1, §2"}}, "note": "Like-named read-outs stand apart in the source and are kept apart here."}
{"compound": "Fc1ccc(-c2c(-c3ccncc3)[nH]c3nccnc23)cc1", "note": "[Compound 122]", "values": [{"measurement": "inhibition at 10 µM", "setting": "[1]; ERK4, 10 µM, read-out: % Competition", "result": 68, "unit": "%"}, {"measurement": "% Competition", "setting": "[2]", "result": 91, "unit": "%"}, {"measurement": "inhibition at 10 µM", "setting": "[3]; AURKC, 10 µM, read-out: % Competition", "result": 86, "unit": "%"}, {"measurement": "% Competition", "setting": "[4]", "result": 82, "unit": "%"}, {"measurement": "inhibition at 10 µM", "setting": "[5]; ERK2, 10 µM, read-out: % Competition", "result": 87, "unit": "%"}, {"measurement": "inhibition at 10 µM", "setting": "[6]; TGFBR1, 10 µM, read-out: % Competition", "result": 91, "unit": "%"}, {"measurement": "inhibition at 10 µM", "setting": "[7]; GSK3B, 10 µM, read-out: % Competition", "result": 96, "unit": "%"}, {"measurement": "competition", "setting": "[8]", "result": "< 50", "unit": "%"}, {"measurement": "inhibition at 10 µM", "setting": "[9]; MEK3, 10 µM, read-out: % Competition", "result": 99, "unit": "%"}, {"measurement": "% Competition", "setting": "[10]", "result": 92, "unit": "%"}, {"measurement": "inhibition at 10 µM", "setting": "[11]; BMPR1B, 10 µM, read-out: % Competition", "result": 81, "unit": "%"}]}
{"compound": "CC(O)CNc1cc(-c2[nH]c3cccnc3c2-c2ccc(F)cc2)ccn1", "note": "(stereo not drawn) [Compound 140]", "values": [{"measurement": "inhibition at 10 µM", "setting": "[1]; read-out: % Competition", "result": "< 50", "unit": "%"}, {"measurement": "% Competition", "setting": "[2]", "result": "<50", "unit": "%"}, {"measurement": "inhibition at 10 µM", "setting": "[3]; read-out: % Competition", "result": "< 50", "unit": "%"}, {"measurement": "% Competition", "setting": "[4]", "result": "<50", "unit": "%"}, {"measurement": "inhibition at 10 µM", "setting": "[5]; read-out: % Competition", "result": "< 50", "unit": "%"}, {"measurement": "inhibition at 10 µM", "setting": "[6]; read-out: % Competition", "result": "< 50", "unit": "%"}, {"measurement": "inhibition at 10 µM", "setting": "[7]; read-out: % Competition", "result": "< 50", "unit": "%"}, {"measurement": "competition", "setting": "[8]", "result": "< 50", "unit": "%"}, {"measurement": "inhibition at 10 µM", "setting": "[9]; read-out: % Competition", "result": "< 50", "unit": "%"}, {"measurement": "% Competition", "setting": "[10]", "result": "<50", "unit": "%"}, {"measurement": "inhibition at 10 µM", "setting": "[11]; read-out: % Competition", "result": "< 50", "unit": "%"}]}
{"compound": "Fc1ccc(-c2c(-c3ccncc3)[nH]c3nccnc23)cc1", "note": "[RO1155697-000-005]", "values": [{"measurement": "inhibition at 10 µM", "setting": "[1]; ERK4, compound concentration 10 uM, read-out: Percent Competition", "result": 68, "unit": "%"}, {"measurement": "Percent Competition", "setting": "[2]; compound concentration 10 uM", "result": 91, "unit": "%"}, {"measurement": "inhibition at 10 µM", "setting": "[3]; AURKC, compound concentration 10 uM, read-out: Percent Competition", "result": 86, "unit": "%"}, {"measurement": "Percent Competition", "setting": "[4]; compound concentration 10 uM", "result": 82, "unit": "%"}, {"measurement": "inhibition at 10 µM", "setting": "[5]; ERK2, compound concentration 10 uM, read-out: Percent Competition", "result": 87, "unit": "%"}, {"measurement": "inhibition at 10 µM", "setting": "[6]; TGFBR1, compound concentration 10 uM, read-out: Percent Competition", "result": 91, "unit": "%"}, {"measurement": "inhibition at 10 µM", "setting": "[7]; GSK3B, compound concentration 10 uM, read-out: Percent Competition", "result": 96, "unit": "%"}, {"measurement": "inhibition at 10 µM", "setting": "[8]; CAMK1, compound concentration 10 uM, read-out: Percent Competition", "result": "< 50", "unit": "%"}, {"measurement": "inhibition at 10 µM", "setting": "[9]; MEK3, compound concentration 10 uM, read-out: Percent Competition", "result": 99, "unit": "%"}, {"measurement": "Percent Competition", "setting": "[10]; compound concentration 10 uM", "result": 92, "unit": "%"}, {"measurement": "inhibition at 10 µM", "setting": "[11]; BMPR1B, compound concentration 10 uM, read-out: Percent Competition", "result": 81, "unit": "%"}]}
